Article PMC5218480 (PLoS ONE, 2017)

Tested on: MV-4-11 cells
Assay: Gene expression microarray analysis (Affymetrix PrimeView) and GSEA
Type: cell-based, human
Parameters: RFU PODN (11730768_x_at) / Fold change /veh PODN (11730768_x_at) / RFU LINC00158 (11744669_a_at) / Fold change /veh LINC00158 (11744669_a_at) / RFU DUSP10 (11751237_a_at) / Fold change /veh DUSP10 (11751237_a_at) / RFU ID3 (11757404_x_at) / Fold change /veh ID3 (11757404_x_at) / RFU PLEKHG5 (11737974_s_at) / Fold change /veh PLEKHG5 (11737974_s_at) / RFU LRRC4B (11730491_at) / Fold change /veh LRRC4B (11730491_at) / RFU GIMAP4 (11747438_a_at) / Fold change /veh GIMAP4 (11747438_a_at) / RFU KRT8 (11758183_x_at) / Fold change /veh KRT8 (11758183_x_at) / RFU CNN1 (11734310_a_at) / Fold change /veh CNN1 (11734310_a_at) / RFU VPS37D (11726825_at) / Fold change /veh VPS37D (11726825_at) / RFU C10orf10 (11716522_x_at) / Fold change /veh C10orf10 (11716522_x_at) / RFU KIR2DL2 /// KIR2DL4 /// KIR2DL5A /// KIR2DL5B /// KIR2DS1 /// KIR2DS2 /// KIR2DS3 /// KIR2DS4 /// KIR3DL3 /// KIR3DL3 /// KIR3DS1 (11738374_at) / Fold change /veh KIR2DL2 /// KIR2DL4 /// KIR2DL5A /// KIR2DL5B /// KIR2DS1 /// KIR2DS2 /// KIR2DS3 /// KIR2DS4 /// KIR3DL3 /// KIR3DL3 /// KIR3DS1 (11738374_at) / RFU C1QL1 (11718748_at) / Fold change /veh C1QL1 (11718748_at) / RFU TMPRSS4 (11747572_a_at) / Fold change /veh TMPRSS4 (11747572_a_at) / RFU HAMP (11756126_x_at) / Fold change /veh HAMP (11756126_x_at) / RFU RNFT2 (11725882_a_at) / Fold change /veh RNFT2 (11725882_a_at) / RFU NR4A2 (11747474_a_at) / Fold change /veh NR4A2 (11747474_a_at) / RFU ABCC12 (11746883_a_at) / Fold change /veh ABCC12 (11746883_a_at) / RFU TMEM136 (11760407_x_at) / Fold change /veh TMEM136 (11760407_x_at) / RFU CLDN22 /// WWC2 (11732394_at) / Fold change /veh CLDN22 /// WWC2 (11732394_at) / RFU HLA-DPB1 (11760878_x_at) / Fold change /veh HLA-DPB1 (11760878_x_at) / RFU SPINT1 (11716480_a_at) / Fold change /veh SPINT1 (11716480_a_at) / RFU GAP43 (11754022_s_at) / Fold change /veh GAP43 (11754022_s_at) / RFU A4GNT (11735810_at) / Fold change /veh A4GNT (11735810_at) / RFU PRB3 (11715151_x_at) / Fold change /veh PRB3 (11715151_x_at) / RFU TUBB4B (11761932_at) / Fold change /veh TUBB4B (11761932_at) / RFU CAPN14 (11732068_a_at) / Fold change /veh CAPN14 (11732068_a_at) / RFU TMCC2 (11721928_a_at) / Fold change /veh TMCC2 (11721928_a_at) / RFU IRGQ (11745062_a_at) / Fold change /veh IRGQ (11745062_a_at) / RFU FAM174B (11720279_a_at) / Fold change /veh FAM174B (11720279_a_at) / RFU TMPRSS4 (11748680_a_at) / Fold change /veh TMPRSS4 (11748680_a_at) / RFU FAM212B (11763350_a_at) / Fold change /veh FAM212B (11763350_a_at) / RFU PLEKHG5 (11743358_a_at) / Fold change /veh PLEKHG5 (11743358_a_at) / RFU ZSCAN30 (11745921_a_at) / Fold change /veh ZSCAN30 (11745921_a_at) / RFU CMKLR1 (11741424_a_at) / Fold change /veh CMKLR1 (11741424_a_at) / RFU LOC101060620 /// MAPK8IP1 (11723275_at) / Fold change /veh LOC101060620 /// MAPK8IP1 (11723275_at) / RFU SPTSSB (11747773_x_at) / Fold change /veh SPTSSB (11747773_x_at) / RFU PRSS12 (11739890_at) / Fold change /veh PRSS12 (11739890_at) / RFU BIN1 (11741810_x_at) / Fold change /veh BIN1 (11741810_x_at) / RFU WNT11 (11732464_a_at) / Fold change /veh WNT11 (11732464_a_at) / RFU C10orf10 (11716521_a_at) / Fold change /veh C10orf10 (11716521_a_at) / RFU C5orf56 (11738089_at) / Fold change /veh C5orf56 (11738089_at) / RFU CYB561 (11721691_x_at) / Fold change /veh CYB561 (11721691_x_at) / RFU ANKRD19P (11752326_a_at) / Fold change /veh ANKRD19P (11752326_a_at) / RFU OR2T12 /// OR2T33 /// OR2T8 (11738714_s_at) / Fold change /veh OR2T12 /// OR2T33 /// OR2T8 (11738714_s_at) / RFU VCAN (11748164_a_at) / Fold change /veh VCAN (11748164_a_at) / RFU JSRP1 (11732532_at) / Fold change /veh JSRP1 (11732532_at) / RFU KRTAP10-11 (11738290_x_at) / Fold change /veh KRTAP10-11 (11738290_x_at) / RFU MYO3A (11730013_a_at) / Fold change /veh MYO3A (11730013_a_at) / RFU EBF3 (11725865_a_at) / Fold change /veh EBF3 (11725865_a_at) / RFU CAMK2N1 (11719241_x_at) / Fold change /veh CAMK2N1 (11719241_x_at) / RFU C5orf56 (11738088_a_at) / Fold change /veh C5orf56 (11738088_a_at) / RFU OLFML3 (11715873_a_at) / Fold change /veh OLFML3 (11715873_a_at) / RFU LOC100653217 /// NTM (11731650_a_at) / Fold change /veh LOC100653217 /// NTM (11731650_a_at) / RFU MAPK11 (11762145_a_at) / Fold change /veh MAPK11 (11762145_a_at) / RFU FIZ1 (11724087_x_at) / Fold change /veh FIZ1 (11724087_x_at) / RFU OASL (11726364_x_at) / Fold change /veh OASL (11726364_x_at) / RFU SOX15 (11748057_x_at) / Fold change /veh SOX15 (11748057_x_at) / RFU CD79A (11719716_a_at) / Fold change /veh CD79A (11719716_a_at) / RFU HIST1H1D (11736915_at) / Fold change /veh HIST1H1D (11736915_at) / RFU CASKIN2 (11723855_a_at) / Fold change /veh CASKIN2 (11723855_a_at) / RFU LOC730098 (11760151_x_at) / Fold change /veh LOC730098 (11760151_x_at) / RFU OR4N2 (11742367_at) / Fold change /veh OR4N2 (11742367_at) / RFU PRRT2 (11749266_a_at) / Fold change /veh PRRT2 (11749266_a_at) / RFU SNX32 (11753110_a_at) / Fold change /veh SNX32 (11753110_a_at) / RFU CDHR5 (11726645_a_at) / Fold change /veh CDHR5 (11726645_a_at) / RFU RCAN1 (11760418_a_at) / Fold change /veh RCAN1 (11760418_a_at) / RFU FAM167A (11723789_a_at) / Fold change /veh FAM167A (11723789_a_at) / RFU FAM26E (11764081_at) / Fold change /veh FAM26E (11764081_at) / RFU ISYNA1 (11749810_s_at) / Fold change /veh ISYNA1 (11749810_s_at) / RFU ACY1 (11761880_at) / Fold change /veh ACY1 (11761880_at) / RFU 11764098_at / Fold change /veh 11764098_at / RFU SAMD14 (11745864_x_at) / Fold change /veh SAMD14 (11745864_x_at) / RFU NPB (11741838_a_at) / Fold change /veh NPB (11741838_a_at) / RFU TMPRSS6 (11731388_a_at) / Fold change /veh TMPRSS6 (11731388_a_at) / RFU KRTAP10-2 (11738614_at) / Fold change /veh KRTAP10-2 (11738614_at) / RFU ARHGAP8 /// PRR5-ARHGAP8 (11727945_x_at) / Fold change /veh ARHGAP8 /// PRR5-ARHGAP8 (11727945_x_at) / RFU KRTAP5-7 /// NADSYN1 (11734609_at) / Fold change /veh KRTAP5-7 /// NADSYN1 (11734609_at) / RFU RASL12 (11751679_a_at) / Fold change /veh RASL12 (11751679_a_at) / RFU CDKN2B (11736163_a_at) / Fold change /veh CDKN2B (11736163_a_at) / RFU PRF1 (11729649_at) / Fold change /veh PRF1 (11729649_at) / RFU, ZNF638 /// ZNF638-IT1 / Fold change vs veh, ZNF638 /// ZNF638-IT1 / RFU, PANK3 / Fold change vs veh, PANK3 / RFU, SH3YL1 / Fold change vs veh, SH3YL1 / RFU, ZEB2 / Fold change vs veh, ZEB2 / RFU, NRIP1 / Fold change vs veh, NRIP1 / RFU, PTTG1IP / Fold change vs veh, PTTG1IP / RFU, CAPN2 / Fold change vs veh, CAPN2 / RFU, MED14 / Fold change vs veh, MED14 / RFU, SNORA58 / Fold change vs veh, SNORA58 / RFU, C1orf63 / Fold change vs veh, C1orf63 / RFU, LRRFIP1 / Fold change vs veh, LRRFIP1 / RFU, NDUFAF7 / Fold change vs veh, NDUFAF7 / RFU, SLC12A2 / Fold change vs veh, SLC12A2 / RFU, IBTK / Fold change vs veh, IBTK / RFU, ESF1 / Fold change vs veh, ESF1 / Fold change vs veh, TMEM50B / RFU, TAOK1 / Fold change vs veh, TAOK1 / RFU, ACBD3 / Fold change vs veh, ACBD3 / RFU, TMA16 / Fold change vs veh, TMA16 / RFU, RWDD3 / Fold change vs veh, RWDD3 / RFU, BCAT1 / Fold change vs veh, BCAT1 / RFU, EDEM3 / Fold change vs veh, EDEM3 / RFU, TMEM33 / Fold change vs veh, TMEM33 / RFU, WDR75 / Fold change vs veh, WDR75 / RFU, AHCTF1 / Fold change vs veh, AHCTF1 / RFU, TFRC / Fold change vs veh, TFRC / RFU, ZDHHC17 / Fold change vs veh, ZDHHC17 / RFU, NOM1 / Fold change vs veh, NOM1 / RFU, ARL8B / Fold change vs veh, ARL8B / RFU, ZBTB11 / Fold change vs veh, ZBTB11 / RFU, TAMM41 / Fold change vs veh, TAMM41 / RFU, KIAA1704 /// LOC100996395 / Fold change vs veh, KIAA1704 /// LOC100996395 / RFU, ING1 / Fold change vs veh, ING1 / RFU, TRMT61B / Fold change vs veh, TRMT61B / RFU, FUBP3 / Fold change vs veh, FUBP3 / RFU, TP53 / Fold change vs veh, TP53 / RFU, TNKS2 / Fold change vs veh, TNKS2 / RFU, ZFP14 / Fold change vs veh, ZFP14 / RFU, ACTR2 / Fold change vs veh, ACTR2 / RFU, PPP3R1 / Fold change vs veh, PPP3R1 / RFU, PIK3R1 / Fold change vs veh, PIK3R1 / RFU, HNRNPA1 / Fold change vs veh, HNRNPA1 / RFU, RNF170 / Fold change vs veh, RNF170 / RFU, ZNF28 / Fold change vs veh, ZNF28 / RFU, RNGTT / Fold change vs veh, RNGTT / RFU, OGT / Fold change vs veh, OGT / RFU, BRD1 / Fold change vs veh, BRD1 / RFU, MARS / Fold change vs veh, MARS / RFU, ZNF655 / Fold change vs veh, ZNF655 / RFU, FAHD1 / Fold change vs veh, FAHD1 / RFU, BDP1 / Fold change vs veh, BDP1 / RFU, LRRCC1 / Fold change vs veh, LRRCC1 / RFU, ARID1A / Fold change vs veh, ARID1A / RFU, ZNF146 / Fold change vs veh, ZNF146 / RFU, ZNF330 / Fold change vs veh, ZNF330 / RFU, GPN3 / Fold change vs veh, GPN3 / RFU, C9orf123 / Fold change vs veh, C9orf123 / RFU, N4BP2L2 / Fold change vs veh, N4BP2L2 / RFU, ARFIP1 / Fold change vs veh, ARFIP1 / RFU, FAM179B / Fold change vs veh, FAM179B / RFU, BCL10 / Fold change vs veh, BCL10 / RFU, UHRF1BP1L / Fold change vs veh, UHRF1BP1L / RFU, BET1 / Fold change vs veh, BET1 / RFU, CNOT2 / Fold change vs veh, CNOT2 / RFU, ZNF268 / Fold change vs veh, ZNF268 / Fold change vs veh, ZNF507 / RFU, DGCR2 / Fold change vs veh, DGCR2 / RFU, WDSUB1 / Fold change vs veh, WDSUB1 / Fold change vs veh, HSP90B1 /// MIR3652 / RFU, ADSS / Fold change vs veh, ADSS / RFU, GK / Fold change vs veh, GK / RFU, ZNF148 / Fold change vs veh, ZNF148 / RFU, TAF9 / Fold change vs veh, TAF9 / RFU, SLC1A5 / Fold change vs veh, SLC1A5 / RFU, SLMO2 / Fold change vs veh, SLMO2 / RFU, ABCC4 / Fold change vs veh, ABCC4 / RFU, LOC101060439 /// RAP1B / Fold change vs veh, LOC101060439 /// RAP1B / RFU, RFX7 / Fold change vs veh, RFX7 / RFU, GTPBP10 / Fold change vs veh, GTPBP10 / RFU, CNEP1R1 / Fold change vs veh, CNEP1R1 / RFU, BIVM-ERCC5 /// ERCC5 / Fold change vs veh, BIVM-ERCC5 /// ERCC5 / RFU, ILF3 / Fold change vs veh, ILF3 / RFU 11762660_at / Fold change /veh 11762660_at / RFU VCAN (11757783_s_at) / Fold change /veh VCAN (11757783_s_at) / RFU DDX43 (11728927_at) / Fold change /veh DDX43 (11728927_at) / RFU KRT8 (11758188_x_at) / Fold change /veh KRT8 (11758188_x_at) / RFU NKD1 (11759106_at) / Fold change /veh NKD1 (11759106_at) / RFU SRD5A1 (11742802_a_at) / Fold change /veh SRD5A1 (11742802_a_at) / RFU TPSAB1 /// TPSB2 (11721975_s_at) / Fold change /veh TPSAB1 /// TPSB2 (11721975_s_at) / RFU GSTM3 (11746129_a_at) / Fold change /veh GSTM3 (11746129_a_at) / RFU IL23R (11737362_x_at) / Fold change /veh IL23R (11737362_x_at) / RFU TMEM51 (11727254_a_at) / Fold change /veh TMEM51 (11727254_a_at) / RFU PIWIL2 (11732686_x_at) / Fold change /veh PIWIL2 (11732686_x_at) / RFU ORM1 (11744905_x_at) / Fold change /veh ORM1 (11744905_x_at) / RFU CCDC152 (11743942_at) / Fold change /veh CCDC152 (11743942_at) / RFU ECM1 (11717891_a_at) / Fold change /veh ECM1 (11717891_a_at) / RFU IL23R (11748794_a_at) / Fold change /veh IL23R (11748794_a_at) / RFU TNFAIP8L3 (11732012_x_at) / Fold change /veh TNFAIP8L3 (11732012_x_at) / RFU MBOAT4 (11741988_at) / Fold change /veh MBOAT4 (11741988_at) / RFU 11764193_at / Fold change /veh 11764193_at / RFU TMEM53 (11763286_at) / Fold change /veh TMEM53 (11763286_at) / RFU MAGEB2 (11727129_at) / Fold change /veh MAGEB2 (11727129_at) / RFU TMEM200A (11744735_a_at) / Fold change /veh TMEM200A (11744735_a_at) / RFU CCDC152 (11751479_a_at) / Fold change /veh CCDC152 (11751479_a_at) / RFU FAM211A (11726209_a_at) / Fold change /veh FAM211A (11726209_a_at) / RFU RGS16 (11746705_a_at) / Fold change /veh RGS16 (11746705_a_at) / RFU VCAN (11755009_s_at) / Fold change /veh VCAN (11755009_s_at) / RFU RHOB (11743442_s_at) / Fold change /veh RHOB (11743442_s_at) / RFU RGS16 (11720943_a_at) / Fold change /veh RGS16 (11720943_a_at) / RFU RGS16 (11720944_at) / Fold change /veh RGS16 (11720944_at) / RFU, VPS4B / Fold change vs veh, VPS4B / RFU, CREB1 / Fold change vs veh, CREB1 / RFU, DNAJC13 / Fold change vs veh, DNAJC13 / RFU, GNAQ / Fold change vs veh, GNAQ / RFU, CDK5R1 / Fold change vs veh, CDK5R1 / RFU, ZRANB3 / Fold change vs veh, ZRANB3 / RFU, CUL4A / Fold change vs veh, CUL4A / RFU, CCNY / Fold change vs veh, CCNY / RFU, UFL1 / Fold change vs veh, UFL1 / RFU, COG3 / Fold change vs veh, COG3 / RFU, DIAPH2 / Fold change vs veh, DIAPH2 / RFU, SKA2 / Fold change vs veh, SKA2 / RFU, AFF3 / Fold change vs veh, AFF3 / RFU, LMF1 / Fold change vs veh, LMF1 / RFU, IPO11 / Fold change vs veh, IPO11 / RFU, DFFB / Fold change vs veh, DFFB / RFU, FOXP1 / Fold change vs veh, FOXP1 / RFU, CARD8 / Fold change vs veh, CARD8 / RFU, STRN3 / Fold change vs veh, STRN3 / RFU, ADK / Fold change vs veh, ADK / RFU, RASSF2 / Fold change vs veh, RASSF2 / RFU, WIPF1 / Fold change vs veh, WIPF1 / RFU, LARP1B / Fold change vs veh, LARP1B / RFU, RASA1 / Fold change vs veh, RASA1 / RFU, RB1 / Fold change vs veh, RB1 / RFU, PPFIA1 / Fold change vs veh, PPFIA1 / RFU, MAT2A / Fold change vs veh, MAT2A / RFU, CCT5 / Fold change vs veh, CCT5 / RFU, WDR92 / Fold change vs veh, WDR92 / RFU, CUX1 / Fold change vs veh, CUX1 / RFU, TTC7A / Fold change vs veh, TTC7A / RFU, TMEM135 / Fold change vs veh, TMEM135 / RFU, DEPTOR / Fold change vs veh, DEPTOR / RFU, CPM / Fold change vs veh, CPM / RFU, DNAJB6 / Fold change vs veh, DNAJB6 / RFU, CACNA2D3 / Fold change vs veh, CACNA2D3 / RFU, DTX4 / Fold change vs veh, DTX4 / RFU, TFCP2 / Fold change vs veh, TFCP2 / RFU, GMCL1 /// GMCL1P1 / Fold change vs veh, GMCL1 /// GMCL1P1 / RFU, AEBP2 / Fold change vs veh, AEBP2 / RFU, SNHG1 /// SNORD22 /// SNORD25 /// SNORD26 /// SNORD27 /// SNORD28 /// SNORD29 /// SNORD31 / Fold change vs veh, SNHG1 /// SNORD22 /// SNORD25 /// SNORD26 /// SNORD27 /// SNORD28 /// SNORD29 /// SNORD31 / Fold change (Aza/veh), C12orf56 (ProbeSet 11735607_a_at) / Fold change (ACY-1035/veh), C12orf56 (ProbeSet 11735607_a_at) / Fold change (Aza/veh), FGFR1OP (ProbeSet 11751329_s_at) / Fold change (ACY-1035/veh), FGFR1OP (ProbeSet 11751329_s_at) / Fold change (Aza/veh), VPS36 (ProbeSet 11739960_a_at) / Fold change (ACY-1035/veh), VPS36 (ProbeSet 11739960_a_at) / RFU SYPL1 (11715823_x_at) / Fold change /veh SYPL1 (11715823_x_at) / RFU IGFBP7 (11715501_s_at) / Fold change /veh IGFBP7 (11715501_s_at) / RFU REEP3 (11722064_at) / Fold change /veh REEP3 (11722064_at) / RFU IGLL1 (11728026_x_at) / Fold change /veh IGLL1 (11728026_x_at): dose or concentration left out as unconfirmed
Conditions: ProbeSet 11724877_a_at; LIST D

Question: For Nc1ncn([C@@H]2O[C@H](CO)[C@@H](O)[C@H]2O)c(=O)n1 [azacitidine], which “Fold change vs veh, AEBP2” value is on record?
Answer: 0.82
